# According to patent publication US11352604B2, “Method of making cardiomyocytes from human pluripotent cells” (Wisconsin Alumni Research Foundation, priority 2016, dated 2022):
# How the values were obtained:
# hPSC-CMs [1] = experiment: Transmission electron microscopy of sarcomeres; format: cell-based, human; settings: day 30 hPSC-CMs from pI:C-treated progenitors
# Text: Differentiated H9-cTnT-GFP line hPSC-CMs at day 30 were washed twice with sodium phosphate buffer and fixed and maintained in sodium phosphate buffer with 4% paraformaldehyde (PFA) until pelleting and processing for TEM as previously described (Raval et al., 2015).
# hPSC-CMs [2] = experiment: Bottom-up label-free quantitative proteomics, day 30 hPSC-CMs from pI:C-treated vs untreated progenitors; format: cell-based, human
# Protocol: Frozen CM pellets from day 30 in the H9 cTnT-GFP reporter cell line with or without pI:C treatment were washed with Ca^2+-free DPBS and centrifuged at 10,000 g for 10 min and the wash solvent was removed. 10 μl of 4 M urea, 0.5 M ammonium bicarbonate, 1 mM DTT, 10 mM L-methionine was added to the each pellet, and the pellets were vortexed and sonicated for 5 min, followed by incubation with shaking at 50° C. for 10 min. ProteaseMax™ surfactant was added to a final concentration of 0.04% and the pellets were vortexed and incubated at 37° C. for 10 min. 30 μl of water was added to the pellets, and the pellets were incubated at 80° C. for 20 min. After centrifugation at 16,000 g for 10 min, the supernatant was collected for Bradford assay to determine protein concentration. All samples were diluted to 800 ng/μl using 1 M urea and 125 mM ammonium bicarbonate, and 50 μl of the extract was reduced with 10 mM DTT for 30 min at 37° C., followed by alkylation with 25 mM Iodoacetamide for 30 min at room temperature in dark. The pH of the samples were tested to make sure the pH was between 7-8 and Trypsin Gold (Promega®) was added to a final trypsin to substrate ratio of 1:50 and incubated at 37° C. for overnight (16 hrs). Acetic acid was added to a final concentration of 5% (pH˜3) and the samples were centrifuged at 16,000 g for 30 min prior to LC-MS analysis.
# Label-free quantitative proteomics analysis was performed using a high-resolution q-TOF mass spectrometer (Impact II, Bruker Daltonics). 3.6 μg of the protein digest were injected to a C18 (New Objective) trapping column for desalting at a flow rate of […] for 5 minutes. The peptides were separated on a 250 mm PicoFrit capillary column packed with 1.9 μm, 175 A Hypersil Gold aQ C18 particles (New Objective) at a flow rate of 300 nl/min by a gradient of 5-45% mobile phase B (0.1% formic acid in acetonitrile) (mobile phase A: 0.1% formic acid in water). The capillary column tip was customized to fit into the CaptiveSpray nanoESI source (Bruker Daltonics) for direct delivery of samples to the mass spectrometer. The most abundant 30 ions were selected for fragmentation by tandem MS (MS/MS) with an active (dynamic) exclusion time of 45 sec. The control group with and without pI:C treatment were analyzed with 5 and 6, respectively, biological replicates. Each sample was analyzed with 3 injection replicates. Protein identification and quantification were performed using the MaxQuant v1.5.7. Proteins were considered identified when at least 1 unique peptide was identified in at least 2 of the biological replicates. Label-free protein quantification was performed by first normalizing the intensity of the proteins (measured by both unique and razer peptides) to the median intensity of the same dataset, and the maximum and minimum of all the non-zero values (if more than 5 values are non-zero) were removed prior to averaging the datasets from the same group. […] Protein-protein interaction analysis was performed using the STRING database.
# [3] = p<0.05 and >50% change, about 2,600 proteins detected
substance,measurement,setting,value
polyinosinic-polycytidylic acid [pI:C],sarcomere ultrastructure,hPSC-CMs [1],"longer, more regular and compact sarcomeres that contained I-bands"
same,number of proteins significantly downregulated,hPSC-CMs [2]; [3],100 proteins
same,number of proteins significantly upregulated,hPSC-CMs [2]; [3],168 proteins
same,Fold change,hPSC-CMs [2]; protein ABHD10,2.205
same,Fold change,hPSC-CMs [2]; protein ACSF2,1.971
same,Fold change,hPSC-CMs [2]; protein AGK,2.084
same,Fold change,hPSC-CMs [2]; protein AIFM1,2.224
same,Fold change,hPSC-CMs [2]; protein AK4,0.122
same,Fold change,hPSC-CMs [2]; protein AKAP12,0.2108
same,Fold change,hPSC-CMs [2]; protein ALDH18A1,0.259
same,Fold change,hPSC-CMs [2]; protein ARL6IP1,0.2711
same,Fold change,hPSC-CMs [2]; protein ATP5F1,3.556
same,Fold change,hPSC-CMs [2]; protein ATP6V1F,0.284
same,Fold change,hPSC-CMs [2]; protein BMP1,2.714
same,Fold change,hPSC-CMs [2]; protein C5orf24,0.2927
same,Fold change,hPSC-CMs [2]; protein CALD1,0.3099
same,Fold change,hPSC-CMs [2]; protein CAPZA1,0.3292
same,Fold change,hPSC-CMs [2]; protein CBWD1,0.3341
same,Fold change,hPSC-CMs [2]; protein CDC37,0.3347
same,Fold change,hPSC-CMs [2]; protein CDK9,1.954
same,Fold change,hPSC-CMs [2]; protein CDKN1B,0.3393
same,Fold change,"hPSC-CMs [2]; protein CFC1, CFC1B",2.61
same,Fold change,hPSC-CMs [2]; protein CISD1,6.047
same,Fold change,hPSC-CMs [2]; protein CLNS1A,0.3492
same,Fold change,hPSC-CMs [2]; protein CLPX,3.1174
same,Fold change,hPSC-CMs [2]; protein COL1A2,0.3554
same,Fold change,hPSC-CMs [2]; protein COL2A1,4.221
same,Fold change,hPSC-CMs [2]; protein COL3A1,0.3719
same,Fold change,hPSC-CMs [2]; protein COL18A1,0.3541
same,Fold change,hPSC-CMs [2]; protein CPS1,0.3857
same,Fold change,hPSC-CMs [2]; protein CRLF3,0.3949
same,Fold change,hPSC-CMs [2]; protein CYB5R3,2.279
same,Fold change,hPSC-CMs [2]; protein DBT,71.68
same,Fold change,hPSC-CMs [2]; protein DCXR,1.952
same,Fold change,hPSC-CMs [2]; protein DKC1,0.3962
same,Fold change,hPSC-CMs [2]; protein DSG2,0.3991
same,Fold change,hPSC-CMs [2]; protein DYNLL1,0.407
same,Fold change,hPSC-CMs [2]; protein EDC4,0.4111
same,Fold change,hPSC-CMs [2]; protein EEF1B2,0.416
same,Fold change,hPSC-CMs [2]; protein EIF3A,0.4235
same,Fold change,hPSC-CMs [2]; protein EIF3K,0.4335
same,Fold change,hPSC-CMs [2]; protein ELAC2,0.4539
same,Fold change,hPSC-CMs [2]; protein EMC1,3.674
same,Fold change,hPSC-CMs [2]; protein EPN1,2.525
same,Fold change,hPSC-CMs [2]; protein EPS15L1,2.414
same,Fold change,hPSC-CMs [2]; protein ERLIN2,2.026
same,Fold change,hPSC-CMs [2]; protein EXOSC6,0.4623
same,Fold change,hPSC-CMs [2]; protein FABP5,0.4749
same,Fold change,hPSC-CMs [2]; protein FLNA,0.4757
same,Fold change,hPSC-CMs [2]; protein FLNB,0.4767
same,Fold change,hPSC-CMs [2]; protein FUBP1,0.484
same,Fold change,hPSC-CMs [2]; protein H6PD,0.4845
same,Fold change,hPSC-CMs [2]; protein HEATR6,0.4857
same,Fold change,hPSC-CMs [2]; protein HEBP2,0.4867
same,Fold change,hPSC-CMs [2]; protein HIST1H2AJ,4.696
same,Fold change,hPSC-CMs [2]; protein HMGCS1,0.5003
same,Fold change,hPSC-CMs [2]; protein HSDL1,2.135
same,Fold change,hPSC-CMs [2]; protein IMMT,2.059
same,Fold change,hPSC-CMs [2]; protein IQGAP1,0.5083
same,Fold change,hPSC-CMs [2]; protein ISOC1,0.5114
same,Fold change,hPSC-CMs [2]; protein ITM2B,2.861
same,Fold change,hPSC-CMs [2]; protein KLC4,0.5119
same,Fold change,"hPSC-CMs [2]; protein KRT18, KRT35",0.5128
same,Fold change,hPSC-CMs [2]; protein KRT19,0.5211
same,Fold change,hPSC-CMs [2]; protein LAMA1,2.03
same,Fold change,hPSC-CMs [2]; protein LGALS1,0.5211
same,Fold change,hPSC-CMs [2]; protein LMCD1,0.5226
same,Fold change,hPSC-CMs [2]; protein LNP,2.183
same,Fold change,hPSC-CMs [2]; protein LRRC59,0.5235
same,Fold change,hPSC-CMs [2]; protein MAP2K4,2.414
same,Fold change,hPSC-CMs [2]; protein MEST,0.5333
same,Fold change,hPSC-CMs [2]; protein MRPS22,1.976
same,Fold change,hPSC-CMs [2]; protein MT-ATP8,2.244
same,Fold change,hPSC-CMs [2]; protein MTCH2,1.99
same,Fold change,hPSC-CMs [2]; protein MYL6,0.534
same,Fold change,hPSC-CMs [2]; protein MYO9B,2.112
same,Fold change,hPSC-CMs [2]; protein NDUFA4,2.128
same,Fold change,hPSC-CMs [2]; protein NGLY1,0.5359
same,Fold change,hPSC-CMs [2]; protein NIT2,0.5435
same,Fold change,hPSC-CMs [2]; protein NNT,1.994
same,Fold change,hPSC-CMs [2]; protein NSDHL,2.081
same,Fold change,hPSC-CMs [2]; protein NUP85,2.249
same,Fold change,hPSC-CMs [2]; protein OGFR,0.5517
same,Fold change,hPSC-CMs [2]; protein ORF1,2.257
same,Fold change,hPSC-CMs [2]; protein P4HB,0.5531
same,Fold change,hPSC-CMs [2]; protein PCCA,2.032
same,Fold change,hPSC-CMs [2]; protein PDLIM1,0.5561
same,Fold change,hPSC-CMs [2]; protein PDLIM3,0.557
same,Fold change,hPSC-CMs [2]; protein PHB2,1.952
same,Fold change,hPSC-CMs [2]; protein RAC1,2.128
same,Fold change,hPSC-CMs [2]; protein RAD54L2,4.857
same,Fold change,hPSC-CMs [2]; protein RRAS,3.82
same,Fold change,hPSC-CMs [2]; protein SLC25A1,2.333
same,Fold change,hPSC-CMs [2]; protein SLC25A3,2.195
same,Fold change,hPSC-CMs [2]; protein SLC25A12,1.968
same,Fold change,hPSC-CMs [2]; protein SMG7,3.817
same,Fold change,"hPSC-CMs [2]; protein THBS1, THBS3, THBS2",3.483
same,Fold change,hPSC-CMs [2]; protein TMEM65,2.197
same,Fold change,hPSC-CMs [2]; protein UACA,1.958
same,Fold change,hPSC-CMs [2]; protein UBE4A,5.484
same,Fold change,hPSC-CMs [2]; protein UQCRB,3.665
same,Fold change,hPSC-CMs [2]; protein USMG5,2.085
same,Fold change,hPSC-CMs [2]; protein XPO7,2.231
